Reference: US20250230138A1, “COMPOUNDS HAVING A T-STRUCTURE FORMED BY AT LEAST FOUR CYCLES FOR USE IN THE TREATMENT OF CANCER AND OTHER INDICATIONS” (TheRas, Inc., priority 2022, published 2025)
Like-named read-outs stand apart in the source and are kept apart here.

Tests used:
[1] = target: Cys242 in human PIK3CA (157-299) (Homo sapiens (Human), UniProt P42336); test: Covalent modification assay using MALDI-TOF MS; type: biochemical; conditions: 4 h reaction time point
Outline: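 Covalent adduct formation was read by linear-mode MALDI-TOF with sinapinic acid matrix, reported as modified-protein peak height divided by total protein peak heights. Reactions held PIK3CA (157-299) at 1 or 3.33 μM in HEPES/NaCl/MgCl2 buffer, pH 7.3, sampled after 15 min to 4 h at room temperature.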

pAKT in BT474 cells = test: Cell-based pAKT HTRF assay in BT474 cells; conditions: BT474 cells, 4 hr incubation, read-out: pAKT inhibition IC50 in BT474 cells
Outline: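 pAKT was measured by HTRF after a 4 hr compound exposure in BT474 cells (DMEM, 10% FBS, 0.25% DMSO), using 9 concentrations from 3 μM in 3-fold steps. Cell lysates were incubated with the Eu cryptate/d2 antibody pair at room temperature for 4 to 24 h. The plate was then read at 320 nm excitation and 615 nm emission.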

[2] = 1 μM protein target, 1:5 protein to compound ratio (compounds 853-1279)
[3] = 3.33 μM protein target, 1:7.5 protein to compound ratio (compounds 1-852)
[4] = Homo sapiens, BT-474, Compounds 10-999

Sequence of Cys242 in human PIK3CA (157-299) (P42336 157-299): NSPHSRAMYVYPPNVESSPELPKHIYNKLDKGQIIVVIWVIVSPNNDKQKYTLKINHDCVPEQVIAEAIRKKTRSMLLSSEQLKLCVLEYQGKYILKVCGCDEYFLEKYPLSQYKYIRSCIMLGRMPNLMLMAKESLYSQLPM

Structure (SMILES)	% of modification [1, 2]	IC50 (pAKT in BT474 cells; Compounds 10-999)	IC50 (pAKT in BT474 cells; Compounds 1000-1279)	% of modification [1, 3]	IC50 (pAKT in BT474 cells; [4])
C=CC(=O)N1Cc2cc(-c3nc(-c4ccc5nncn5c4)c4ccsc4c3-c3c(F)cc(F)cc3OCCO)nn2CC1C (stereo not drawn) [Compound 903]	A (percent of modification of PIK3CA protein ≥75%)	< 100 nM	–	–	–
C=CC(=O)N1CCn2nc(-c3nc(-c4ccc5c(cnn5C)c4)c4ccsc4c3-c3c(F)cc(F)cc3OCCO)cc2C1C (stereo not drawn) [Compound 1156]	D (percent of modification <25%)	–	< 100 nM	–	–
C=CC(=O)N1Cc2cc(-c3nc(-c4ccc5c(c4)CCN(C)C5)c4ccsc4c3-c3c(F)cc(F)cc3OCCOC)nn2[C@@H](C)C1 [Compound 560]	–	< 100 nM	–	A (percent of modification of PIK3CA protein ≥75%)	–
C=CC(=O)N1CCn2nc(-c3nc(-c4ccc5c(c4)C(=O)N(C)CC5)c4ccsc4c3-c3c(F)cc(F)cc3OCCOC)cc2[C@H]1C [Compound 953]	A (percent of modification of PIK3CA protein ≥75%)	< 100 nM	–	–	–
C=CC(=O)N1CC[C@H](n2cc(-c3nc(-c4cnn(C)c4)c4ccsc4c3-c3c(F)cc(F)cc3OC(C)C)cn2)C1 [Compound 358]	–	100 to 1000 nM	–	A (percent of modification of PIK3CA protein ≥75%)	–
C=CC(=O)N1CCc2nc(-c3nc(-c4cnn(C)c4)c4ccsc4c3-c3c(F)cc(F)cc3OC(C)C)sc2C1 [Compound 339]	–	< 100 nM	–	A (percent of modification of PIK3CA protein ≥75%)	–
C=CC(=O)N1CCc2nc(-c3nc(C4CCN(C(C)C)CC4)c4ccsc4c3-c3ccc(F)cc3OCCOC)sc2C1 [Compound 143, 1-(2-(7-(4-fluoro-2-(2-methoxyethoxy)phenyl)-4-(1-isopropylpiperidin-4-yl)thieno[3,2-c]pyridin-6-yl)-6,7-dihydrothiazolo[5,4-c]pyridin-5(4H)-yl)prop-2-en-1-one]	–	–	–	A (percent of modification of PIK3CA protein ≥75%)	100 to 1000 nM
C=CC(=O)N1CCn2nc(-c3nc(-c4ccc5c(c4)c(F)nn5C)c4ccsc4c3-c3c(F)cc(F)cc3OCCOC)cc2[C@H]1C [Compound 1165]	A (percent of modification of PIK3CA protein ≥75%)	–	< 100 nM	–	–
C=CC(=O)N1CCn2nc(-c3nc(-c4ccc5c(c4)c(C)nn5C)c4ccsc4c3-c3c(F)cc(F)cc3OCCO)cc2C1C (stereo not drawn) [Compound 1101]	A (percent of modification of PIK3CA protein ≥75%)	–	< 100 nM	–	–
C=CC(=O)N1CCc2nc(-c3nc(-c4ccn(C(F)F)c(=O)c4)c4ccsc4c3-c3c(F)cc(F)cc3OC(C)C)sc2C1 [Compound 362]	–	100 to 1000 nM	–	A (percent of modification of PIK3CA protein ≥75%)	–
C=CC(=O)N1CCc2ncc(-c3nc(-c4ccc5c(c4)C(O)CC5)c4ccsc4c3-c3c(F)cc(F)cc3OCCOC)cc2C1 (stereo not drawn) [Compound 397]	–	< 100 nM	–	A (percent of modification of PIK3CA protein ≥75%)	–
C=CC(=O)N1CCn2nc(-c3nc(-c4ccc5nn(C)cc5c4)c4ccsc4c3-c3c(F)cc(F)cc3OCCOC)cc2[C@H]1C [Compound 749]	–	< 100 nM	–	A (percent of modification of PIK3CA protein ≥75%)	–
C=CC(=O)N1CCc2ncc(-c3nc(-c4cnn(C)c4)c4ccsc4c3-c3c(F)cc(F)cc3OCCOC)cc2C1 [Compound 393]	–	< 100 nM	–	A (percent of modification of PIK3CA protein ≥75%)	–
C=CC(=O)N1CCn2nc(-c3nc(-c4cnc5c(c4)CN(C)CC54CC4)c4ccsc4c3-c3c(F)cc(F)cc3OCCOC)cc2[C@H]1C [Compound 1163]	A (percent of modification of PIK3CA protein ≥75%)	–	< 100 nM	–	–
C=CC(=O)N1CCn2nc(-c3nc(-c4ccc5c(c4)CNC5=O)c4ccsc4c3-c3c(F)cc(F)cc3OCCOC)cc2[C@H]1C [Compound 520]	–	< 100 nM	–	A (percent of modification of PIK3CA protein ≥75%)	–
C=CC(=O)N1CCn2nc(-c3nc(-c4cnc5c(c4)CN(C)CC5(F)F)c4ccsc4c3-c3c(F)cc(F)cc3OCCO)cc2C1C (stereo not drawn) [Compound 1196]	A (percent of modification of PIK3CA protein ≥75%)	–	< 100 nM	–	–
C=C(F)C(=O)N1CCn2nc(-c3nc(-c4ccc5c(c4)CNC5=O)c4ccsc4c3-c3c(Cl)cccc3OC(C)C)cc2C1 [Compound 472]	–	100 to 1000 nM	–	B (50%<percent of modification <75%)	–

Structure (SMILES)	% of modification [1, 2]	IC50 (pAKT in BT474 cells; Compounds 10-999)	IC50 (pAKT in BT474 cells; Compounds 1000-1279)	% of modification [1, 3]	IC50 (pAKT in BT474 cells; [4])
C=CC(=O)N1CCn2nc(-c3nc(-c4cnnc(C)c4)c4ccsc4c3-c3c(F)cc(F)cc3OC[C@@H](C)O)cc2[C@H]1C [Compound 751]	–	< 100 nM	–	A (percent of modification of PIK3CA protein ≥75%)	–
C=CC(=O)N1Cc2cc(-c3nc(-c4cnc(C)nc4)c4ccsc4c3-c3c(F)cc(F)cc3OCCO)nn2CC1C (stereo not drawn) [Compound 831]	–	< 100 nM	–	A (percent of modification of PIK3CA protein ≥75%)	–
C=CC(=O)N1Cc2cc(-c3nc(-c4cnn(C)c4)c4ccsc4c3-c3c(F)cc(F)cc3OCCOC)nn2C[C@H]1C [Compound 577]	–	< 100 nM	–	A (percent of modification of PIK3CA protein ≥75%)	–
C=CC(=O)N1CCn2nc(-c3nc(N4CCC5(CC4)COC5)c4ccsc4c3-c3ccc(F)cc3OCCOC)cc2C1 [Compound 198, 1-[2-[7-[4-fluoro-2-(2-methoxyethoxy)phenyl]-4-(2-oxa-7-azaspiro[3.5]nonan-7-yl)thieno[3,2-c]pyridin-6-yl]-6,7-dihydro-4H-pyrazolo[1,5-a]pyrazin-5-yl]prop-2-en-1-one]	–	–	–	A (percent of modification of PIK3CA protein ≥75%)	< 100 nM
C=CC(=O)N1CCc2ccc(-c3nc(-c4cnc(N5CCN(C)CC5)nc4)c4ccsc4c3-c3c(F)cc(F)cc3OCCOC)cc2C1 [Compound 1069]	D (percent of modification <25%)	–	> 1000 nM	–	–
C=CC(=O)N1CCn2nc(-c3nc(-c4ccc(=O)n(C5CN(C)C5)c4)c4ccsc4c3-c3c(F)cc(F)cc3OCCOC)cc2C1C (stereo not drawn) [Compound 1031]	B (50%<percent of modification <75%)	–	100 to 1000 nM	–	–
C=CC(=O)N1CCn2nc(-c3nc(-c4ccc5oc(C)nc5c4)c4ccsc4c3-c3c(F)cc(F)cc3OCCO)cc2[C@@H]1C [Compound 654]	–	< 100 nM	–	A (percent of modification of PIK3CA protein ≥75%)	–
C=CC(=O)N1CC(n2cc(-c3nc(-c4cnn(CC5CC5(F)F)c4)c4ccsc4c3-c3ccc(F)cc3OCCOC)cn2)C1 (stereo not drawn) [Compound 237]	–	100 to 1000 nM	–	A (percent of modification of PIK3CA protein ≥75%)	–
C=CC(=O)N1CCn2nc(-c3nc(-c4ccc(OCCN(C)C)cc4F)c4ccsc4c3-c3c(F)cc(F)cc3OCCOC)cc2C1C (stereo not drawn) [Compound 1091]	A (percent of modification of PIK3CA protein ≥75%)	–	< 100 nM	–	–
C=CC(=O)N1CCc2nc(-c3nc(-c4ccc5nncn5c4)c4ccsc4c3-c3c(F)cc(F)cc3OCCOC)sc2C1 [Compound 978]	A (percent of modification of PIK3CA protein ≥75%)	< 100 nM	–	–	–
C=CC(=O)N1CCC(n2cc(-c3nc(-c4cnn5c4CNCC5)c4ccsc4c3-c3ccc(F)cc3OCCOC)cn2)CC1 [Compound 71]	–	100 to 1000 nM	–	A (percent of modification of PIK3CA protein ≥75%)	–
C=CC(=O)N1CCn2nc(-c3nc(-c4ccc(C(=O)N(C)C)cc4)c4ccsc4c3-c3c(F)cc(F)cc3OCCOC)cc2C1C (stereo not drawn) [Compound 1100]	A (percent of modification of PIK3CA protein ≥75%)	–	< 100 nM	–	–
C=CC(=O)N1CCn2nc(-c3nc(-c4ccc5c(c4)CNC(=O)C5)c4ccsc4c3-c3c(F)cc(F)cc3OCCOC)cc2C1C (stereo not drawn) [Compound 931]	A (percent of modification of PIK3CA protein ≥75%)	< 100 nM	–	–	–
C=CC(=O)N1CCc2ncc(-c3nc(-c4ccn(C(F)F)c(=O)c4)c4ccsc4c3-c3c(F)cc(F)cc3OC(C)C)cc2C1 [Compound 359]	–	< 100 nM	–	A (percent of modification of PIK3CA protein ≥75%)	–
C=CC(=O)N1Cc2cc(-c3nc(-c4cnn(C)c4)c4ccsc4c3-c3c(F)cc(F)cc3OCCOC)nn2CC1C (stereo not drawn) [Compound 469]	–	< 100 nM	–	A (percent of modification of PIK3CA protein ≥75%)	–
C=CC(=O)N1Cc2cc(-c3nc(-c4ccc5nn(C)cc5c4)c4ccsc4c3-c3c(F)cc(F)cc3OC)nn2[C@@H](C)C1 [Compound 847]	–	< 100 nM	–	A (percent of modification of PIK3CA protein ≥75%)	–
